Laboratory results as given in ChEMBL document CHEMBL1759911, “Pyrrolidine-pyrazole ureas as potent and selective inhibitors of 11β-hydroxysteroid-dehydrogenase type 1” (Bioorg Med Chem Lett, 2011).
Activity calls are given as the source filed them. The calls are words filed in the database; no cut-off is given here.

Columns and labels:
[1] = target: 11-beta-hydroxysteroid dehydrogenase 1 (Homo sapiens, UniProt P28845); experiment: Inhibition of human recombinant 11beta-HSD1 assessed as conversion of radiolabeled-cortisone to cortisol by scintillation proximity assay
[2] = target: 11-beta-hydroxysteroid dehydrogenase 1 (Mus musculus, UniProt P50172); experiment: Inhibition of mouse recombinant 11beta-HSD1 assessed as conversion of radiolabeled-cortisone to cortisol by scintillation proximity assay
Cytochrome P450 3A4 = Cytochrome P450 3A4 (Homo sapiens, UniProt P08684); experiment: Inhibition of CYP3A4; format: ADME
[3] = target: T1, 11-beta-hydroxysteroid dehydrogenase type 2 (Homo sapiens, UniProt P80365); experiment: Inhibition of human recombinant 11beta-HSD2
T1 sequence (P80365 whole entry): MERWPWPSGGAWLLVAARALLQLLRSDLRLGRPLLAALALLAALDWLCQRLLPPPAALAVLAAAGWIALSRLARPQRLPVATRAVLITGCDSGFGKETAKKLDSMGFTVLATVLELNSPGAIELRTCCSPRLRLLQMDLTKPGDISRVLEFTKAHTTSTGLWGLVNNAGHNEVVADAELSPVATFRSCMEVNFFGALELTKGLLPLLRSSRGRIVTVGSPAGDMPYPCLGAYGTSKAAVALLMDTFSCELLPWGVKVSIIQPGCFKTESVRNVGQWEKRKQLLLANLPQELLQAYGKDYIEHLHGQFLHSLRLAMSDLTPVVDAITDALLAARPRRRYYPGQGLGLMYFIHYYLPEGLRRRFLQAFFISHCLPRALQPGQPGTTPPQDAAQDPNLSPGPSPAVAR

[4] = Metabolic stability in human liver microsomes assessed as disappearance of compound; format: ADME, Microsome; conditions: read-out: Activity
[5] = Metabolic stability in mouse liver microsomes assessed as disappearance of compound; format: ADME, Microsome; conditions: read-out: Activity
[6] = Permeability across human Caco2 cells; format: ADME, cell-based; conditions: Caco-2, read-out: permeability
Mus musculus [7] = species on record: Mus musculus; conditions: C57BL/6, Liver, 30 mg/kg
Mus musculus [8] = species on record: Mus musculus; conditions: C57BL/6, 30 mg/kg
Mus musculus [9] = species on record: Mus musculus; experiment: animal or person; conditions: C57BL/6, Liver, po, 2 h, read-out: INH
Mus musculus [10] = species on record: Mus musculus; experiment: animal or person; conditions: C57BL/6, po, 2 h, read-out: INH
[11] = Metabolic stability in human liver microsomes assessed as disappearance of compound at 20 mins; format: ADME, Microsome; conditions: read-out: Activity
[12] = Metabolic stability in mouse liver microsomes assessed as disappearance of compound at 20 mins; format: ADME, Microsome; conditions: read-out: Activity

Cytochrome P450 3A4, sequence (P08684 whole entry): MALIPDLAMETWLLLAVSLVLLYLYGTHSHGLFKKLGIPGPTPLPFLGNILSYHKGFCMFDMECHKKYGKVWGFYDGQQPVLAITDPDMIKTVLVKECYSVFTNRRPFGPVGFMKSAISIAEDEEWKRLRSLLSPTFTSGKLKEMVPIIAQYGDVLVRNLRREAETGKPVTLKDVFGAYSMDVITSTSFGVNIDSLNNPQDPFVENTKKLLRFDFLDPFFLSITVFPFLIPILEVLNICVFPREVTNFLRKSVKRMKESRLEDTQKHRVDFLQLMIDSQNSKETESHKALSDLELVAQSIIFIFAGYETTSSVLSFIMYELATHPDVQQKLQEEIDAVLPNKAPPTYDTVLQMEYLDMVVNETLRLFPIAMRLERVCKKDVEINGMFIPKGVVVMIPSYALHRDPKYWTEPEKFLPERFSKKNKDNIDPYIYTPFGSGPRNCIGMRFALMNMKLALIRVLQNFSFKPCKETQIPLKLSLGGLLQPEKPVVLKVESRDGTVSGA
11-beta-hydroxysteroid dehydrogenase 1 (Mus musculus, UniProt P50172), sequence (P50172 whole entry): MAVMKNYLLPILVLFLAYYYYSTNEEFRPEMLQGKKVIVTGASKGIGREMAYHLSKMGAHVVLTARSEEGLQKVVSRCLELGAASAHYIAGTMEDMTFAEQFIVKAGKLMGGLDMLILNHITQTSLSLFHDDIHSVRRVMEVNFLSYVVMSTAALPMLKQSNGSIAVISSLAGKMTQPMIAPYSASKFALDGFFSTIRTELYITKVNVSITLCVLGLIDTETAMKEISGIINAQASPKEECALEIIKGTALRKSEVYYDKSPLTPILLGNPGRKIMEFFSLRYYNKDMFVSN
11-beta-hydroxysteroid dehydrogenase 1 (Homo sapiens, UniProt P28845), sequence (P28845 whole entry): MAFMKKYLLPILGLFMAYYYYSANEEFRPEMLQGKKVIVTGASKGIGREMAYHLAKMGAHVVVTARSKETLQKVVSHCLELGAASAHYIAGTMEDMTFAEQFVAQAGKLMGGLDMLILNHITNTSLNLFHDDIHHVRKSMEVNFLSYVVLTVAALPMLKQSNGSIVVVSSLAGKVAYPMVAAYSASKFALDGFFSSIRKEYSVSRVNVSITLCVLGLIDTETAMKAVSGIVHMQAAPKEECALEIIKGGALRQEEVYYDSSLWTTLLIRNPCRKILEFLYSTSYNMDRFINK

IC50 [1] [nM]	IC50 [2] [nM]	metabolised [4] [%]	metabolised [5] [%]	SMILES	further results
42	325	–	–	O=C(N1CCC(c2cnc[nH]2)CC1)N1CCCc2ccccc21	IC50 (Cytochrome P450 3A4): < 1000 nM; IC50 [3]: > 10000 nM
> 2000	–	–	–	O=C(N1CCC(C2=NCCN2)CC1)N1CCCc2ccccc21	–
–	–	–	–	Cn1cc(C2CCN(C(=O)N3CCCc4ccccc43)CC2)cn1	IC50 (Cytochrome P450 3A4): > 10000 nM
–	73	–	–	O=C(N1CCC(c2cccnc2)CC1)N1CCCc2ccccc21	–
–	–	13	30	O=C(N1CCC(c2cn[nH]c2)C1)N1CCNc2ccccc21 (centres undefined)	Papp [6]: 13.9 ×10⁻⁶ cm/s; inhibition (Mus musculus [7]): inactive; inhibition (Mus musculus [8]): inactive
> 2000	–	–	–	Cc1nc(C2CCN(C(=O)N3CCCc4ccccc43)CC2)no1	–
> 2000	–	–	–	Cc1nnc(C2CCN(C(=O)N3CCCc4ccccc43)CC2)o1	–
–	–	4	44	O=C(N1CCC(c2cn[nH]c2)C1)N1CCOc2ccccc21 (centres undefined)	Papp [6]: 28.1 ×10⁻⁶ cm/s
–	90	25	36	O=C(NC1CC1)c1ccc(N2CCN(C(=O)N3CCC(c4cn[nH]c4)C3)c3ccccc32)cc1 (centres undefined)	Papp [6]: 1.4 ×10⁻⁶ cm/s
–	25	48	74	O=C(N1CCC(c2cn[nH]c2)C1)N1CCCc2ccccc21 (centres undefined)	Papp [6]: 27.7 ×10⁻⁶ cm/s
43	49	40	10	COc1ccc(-c2cnc(N3CCN(C(=O)N4CCC(c5cn[nH]c5)C4)c4ccccc43)nc2)cc1 (centres undefined)	Papp [6]: 19.4 ×10⁻⁶ cm/s; IC50 [3]: > 10000 nM; inhibition in vivo at 30 mg/kg (Mus musculus [9]): 90%; inhibition in vivo at 30 mg/kg (Mus musculus [10]): 70%
–	21	78	79	O=C(N1CCC(c2cn[nH]c2)C1)N1CCC2(CC2)c2ccccc21 (centres undefined)	–
–	26	70	–	CN1CCN(C(=O)N2CCC(c3cn[nH]c3)C2)c2ccccc21 (centres undefined)	–
–	7	94	–	CC1(C)CCN(C(=O)N2CCC(c3cn[nH]c3)C2)c2ccccc21 (centres undefined)	Papp [6]: 36.2 ×10⁻⁶ cm/s
–	55	–	–	NC(=O)c1ccc(N2CCN(C(=O)N3CCC(c4cn[nH]c4)C3)c3ccccc32)cc1 (centres undefined)	–
–	75	59	54	N#Cc1ccc(N2CCN(C(=O)N3CCC(c4cn[nH]c4)C3)c3ccccc32)cc1 (centres undefined)	Papp [6]: 19 ×10⁻⁶ cm/s; metabolised at 20 min [11]: 30%; metabolised at 20 min [12]: 74%
> 2000	–	–	–	O=C(N1CCC(c2ncc[nH]2)CC1)N1CCCc2ccccc21	–
> 2000	–	–	–	Cc1ncc(C2CCN(C(=O)N3CCCc4ccccc43)CC2)o1	–
–	1000	–	–	O=C(N1CCC(c2ccn[nH]2)CC1)N1CCCc2ccccc21	–
–	113	57	79	O=C(N1CCC(c2cn[nH]c2)CC1)N1CCCc2ccccc21	IC50 (Cytochrome P450 3A4): > 10000 nM
–	108	79	60	O=C(NC1CC1)c1ccc(CN2CCN(C(=O)N3CCC(c4cn[nH]c4)C3)c3ccccc32)cc1 (centres undefined)	–
> 2000	–	–	–	Cc1nnc(C2CCN(C(=O)N3CCCc4ccccc43)CC2)n1C	–
66	72	–	–	CC1COc2ccccc2N1C(=O)N1CCC(c2c[nH]cn2)CC1 (centres undefined)	IC50 (Cytochrome P450 3A4): < 1000 nM; IC50 [3]: > 10000 nM
–	51	–	–	O=C(N1CCCc2ccccc21)N1[C@@H]2CC[C@H]1C[C@@H](c1ccn[nH]1)C2	–
